According to publication PMC6172451 (Frontiers in Microbiology, 2018):
Like-named read-outs stand apart in the source and are kept apart here. Bridges are numbered along the chain shown (N, C = ends). Where no end group is shown, it is not given here.

Legend:
chymotrypsin = chymotrypsin (Bos taurus, UniProt P00766); conditions: 360 μL bacteriocin (256 μg/mL) + 40 μL chymotrypsin, final 1 mg/mL; pH 7.8; 25°C; 3 h; read-out activity against L. monocytogenes 54002; triplicate
Method: (§1) After 3 h of incubation at appropriate the temperature (Table 3), the activity against indicator strain (L. monocytogenes 54002) was determined. Non-enzymic treatment was used as control test.

papain = papain (Carica papaya, UniProt P00784); conditions: 360 μL bacteriocin (256 μg/mL) + 40 μL papain, final 1 mg/mL; pH 6.5; 37°C; 3 h; read-out activity against L. monocytogenes 54002; triplicate
Method: as §1

pepsin = pepsin (Sus scrofa, UniProt P00791); conditions: 360 μL bacteriocin (256 μg/mL) + 40 μL pepsin, final 1 mg/mL; pH 3; 37°C; 3 h; read-out activity against L. monocytogenes 54002; triplicate
Method: as §1

proteinase K = proteinase K (Parengyodontium album, UniProt P06873); conditions: 360 μL bacteriocin (256 μg/mL) + 40 μL proteinase K, final 1 mg/mL; pH 7.5; 37°C; 3 h; read-out activity against L. monocytogenes 54002; triplicate
Method: as §1

[1] = pH stability, remaining antibacterial activity; format: physicochemical; conditions: 256 μg/mL, 3 h at 37°C, readjusted to pH 6.0
L. monocytogenes 54002 [2] = assay: Mode of action: viable cells and optical density; format: cell-based, Listeria monocytogenes; conditions: 256 μg/mL bacteriocin, about 10^8 CFU/mL in 20 mM sodium phosphate buffer, 37°C, after 3 h
Method: Cells were harvested and resuspended in sterile 20 mM sodium phosphate buffer to give 10^8 CFU/mL approximately. Bacteriocin was added for final concentration of 256 μg/mL, while a sample without added bacteriocin was used as control. All samples were incubated for 5 h at 37°C. The optical density (600 nm) and viable cells were monitored every 1 h ([Deraz et al., 2007]).

L. monocytogenes 54002 [3] = assay: Membrane permeabilization, SYTOX Green stain; format: cell-based, Listeria monocytogenes
Method: The fluorescence was detected using RT-PCR instrument combined with 5 μM SYTOX^TM Green Stain (Invitrogen, United States). Cells were resuspended in sterile 20 mM sodium phosphate buffer to give 10^6 CFU/mL approximately. Bacteriocin was added at final concentration of 256 and 128 μg/mL, respectively, while a sample with added sodium phosphate buffer was used as control. Meanwhile, the treated cells were examined using confocal laser scanning microscopy (CLSM; Leica, United States) combined with 5 μM SYTOX^TM Green Dead Cell Stain.

[4] = 1% (V/V) Tween 20, Tween 80, urea, and EDTA at 37°C for 3 h
Method: After 3 h of incubation at 37°C, the remaining activity against indicator was determined and untreated samples were used as a control test.

Sequence of pepsin (P00791 60-385): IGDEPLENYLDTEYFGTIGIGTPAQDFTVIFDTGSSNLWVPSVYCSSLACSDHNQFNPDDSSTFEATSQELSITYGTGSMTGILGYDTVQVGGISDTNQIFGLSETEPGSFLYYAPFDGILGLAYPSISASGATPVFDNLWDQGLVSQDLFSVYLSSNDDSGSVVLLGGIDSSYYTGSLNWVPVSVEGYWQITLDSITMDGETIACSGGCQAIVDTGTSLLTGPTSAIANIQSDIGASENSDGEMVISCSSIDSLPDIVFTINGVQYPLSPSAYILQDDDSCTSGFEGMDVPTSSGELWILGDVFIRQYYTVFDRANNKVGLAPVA
Sequence of proteinase K (P06873 106-384): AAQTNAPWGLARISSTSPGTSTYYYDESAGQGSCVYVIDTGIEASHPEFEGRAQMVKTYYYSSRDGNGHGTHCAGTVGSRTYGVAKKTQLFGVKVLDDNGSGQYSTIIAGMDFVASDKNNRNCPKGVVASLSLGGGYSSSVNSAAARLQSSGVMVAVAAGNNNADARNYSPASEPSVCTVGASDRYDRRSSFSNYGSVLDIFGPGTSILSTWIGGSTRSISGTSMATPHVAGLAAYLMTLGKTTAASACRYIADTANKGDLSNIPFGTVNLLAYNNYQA
Sequence of papain (P00784 134-345): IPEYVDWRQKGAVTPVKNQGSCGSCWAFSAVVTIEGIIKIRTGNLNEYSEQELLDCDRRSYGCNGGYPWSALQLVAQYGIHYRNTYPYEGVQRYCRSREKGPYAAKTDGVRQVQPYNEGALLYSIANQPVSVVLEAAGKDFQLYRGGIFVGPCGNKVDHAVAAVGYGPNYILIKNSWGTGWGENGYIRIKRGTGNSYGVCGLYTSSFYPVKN

VIADKYYGNGVSCGKHTCTVDWGEAFSCSVSHLANFGHGKC (disulfide 13-18; cysteines drawn unpaired) [plantaricin LPL-1]
Diameter (mm) of inhibition zone after enzyme treatment (chymotrypsin): 0 mm | Diameter (mm) of inhibition zone after enzyme treatment (papain): 0 mm | Diameter (mm) of inhibition zone after enzyme treatment (pepsin): 0 mm | Diameter (mm) of inhibition zone after enzyme treatment (proteinase K): 0 mm | Remaining antibacterial activity (%) ([1]; pH 10, pH set with HCl/NaOH, activity against indicator, Figure 5A): 25% | Activity kept ([1]; pH between 2.0 and 7.0): 90% | Decrease of optical density (600 nm) (L. monocytogenes 54002 [2]): 0.69 units | Decrease of the number of viable cells (L. monocytogenes 54002 [2]): 2.11 Log10 cfu | Amounts of dead cells (CLSM) (L. monocytogenes 54002 [3]; 256 μg/mL for 10, 20 and 30 min, 5 μM SYTOX Green Dead Cell Stain, confocal laser scanning microscopy): increased gradually | Fluorescence intensity (SYTOX Green) (L. monocytogenes 54002 [3]; 128 and 256 μg/mL, about 10^6 CFU/mL, 5 μM SYTOX Green, RT-PCR instrument, control remained stable): increased | Thermal stability in words (60, 80, and 100°C for 15 and 30 min): remained stable | Remaining antibacterial activity (%) (121°C, 20 min, 256 μg/mL, autoclave, Figure 5B): 58.82% | Stability toward surfactants in words [4]: remained stable
